Data taken from patent publication US20160187320A1, “ASSAY FOR SCREENING COMPOUNDS THAT SELECTIVELY DECREASE THE NUMBER OF CANCER STEM CELLS” (THE ROGOSIN INSTITUTE, priority 2011, published 2016).
One block for each compound: values may come before it.

How the values were obtained:
[1] = tested on: Docetaxel resistant (DR) cells (DU145-DR, 22RV1-DR); assay: Cross-resistance of Docetaxel resistant (DR) cells; assay type: cell-based, human; conditions: data not shown
[2] = tested on: DU145-CK19 promoter-GFP stable cells sorted by GFP/HLA class I; assay: Colony formation assay of GFP/HLA class I sorted cells under Docetaxel; assay type: cell-based, human; conditions: Docetaxel 10 nM continuously
Procedure: (§1) Cell viability was analyzed using the Cell titer 96 Aquos Non-Reactive Cell Proliferation Assay (MTS) kit (Promega Corp., Madison, Wis.). Cells were seeded at a density of 10^4 in 96-well culture dishes and 24 hours later medium was removed and replaced with new medium alone (control) or medium containing drugs. After 72 hours, color absorbance was measured on a microplate spectrophotometer (Molecular Dynamics) at 450 nm (test wavelength) and 620 nm (reference wavelength). The percentage of surviving cells was estimated by dividing the A 450 nm-A 620 nm of treated cells by the A 450 nm-A 620 nm of control cells. Clonogenic survival assays in response to drug treatment were performed by plating 10^3 cells in 35 mm culture dishes. After 24 hours, cells were left untreated (control) or treated with drugs. Next day, medium was changed and the cells kept growing in fresh medium without any drug or under continuous exposure to drugs. For these continuous exposure experiments, medium plus drugs were replaced every 3 days until clones of drug-resistant cells appeared. Cells were then fixed with 4% paraformaldehyde in PBS, stained with crystal violet solution and formed colonies were visually counted.

[3] = tested on: 22RV1-DR and DU145-DR (resistant) cells; assay: Colony formation assay, Docetaxel resistant cells; assay type: cell-based, human; conditions: continuous Docetaxel for 21 days
Procedure: as §1

DU145 cells = assay: Cell viability assay (MTS), parental DU145; assay type: cell-based; conditions: Homo sapiens, DU-145; parental DU145, 72 hours; read-out: Docetaxel IC50
Procedure: (§2) Human hormone-independent prostate cancer cell lines, DU-145 and 22RV1, were obtained from American Type Culture Collection (ATCC) and maintained in RPMI 1640 medium (Gibco, Invitrogen Corp., Carlsbad, Calif.) supplemented with 10% FBS without antibiotics. Cells were grown at 37° C. in a humidified atmosphere with 5% CO2. DU145 and 22RV1 cells were selected in order to generate a prostate cancer Docetaxel resistance model. […] Thus, the generation of acquired Docetaxel resistance in these two phenotypically distinct cell lines facilitated an approach to study the molecular processes involved in the acquisition of Docetaxel resistance. Docetaxel resistant clones, DU-145-DR and 22RV1-DR, were selected by culturing cells with Docetaxel in a dose-escalation manner. Initial culture was at 5 nM Docetaxel. […]
(§3) Cell viability was analyzed using the Cell titer 96 Aquos Non-Reactive Cell Proliferation Assay (MTS) kit (Promega Corp., Madison, Wis.). […] After 72 hours, color absorbance was measured on a microplate spectrophotometer (Molecular Dynamics) at 450 nm (test wavelength) and 620 nm (reference wavelength). […] Cells were then fixed with 4% paraformaldehyde in PBS, stained with crystal violet solution and formed colonies were visually counted.

22RV1 cells = assay: Cell viability assay (MTS), parental 22RV1; assay type: cell-based; conditions: Homo sapiens; parental 22RV1, 72 hours; read-out: Docetaxel IC50
Procedure: as §2, §3

[4] = tested on: DU145-CK19 promoter-GFP stable cells; assay: Flow cytometry of GFP populations surviving Docetaxel; assay type: cell-based, human; conditions: Docetaxel 10 nM, 48 hours
Excerpt: CK19 gene promoter region was amplified from DU145 cells genomic DNA by PCR with specific primer sets (Fw 5′-[…]-3′ (SEQ ID NO: 1) and Rv 5′-[…]-3′ (SEQ ID NO: 2)) as described previously (Tripathi et al., 2005. The PCR products were digested with Ase I and Hind III and cloned into pEGFPN1 vector (Clontech, Mountain View, Calif.) previously digested with the same enzymes. As a result, the CMV promoter was removed from the original vector and the GFP expression was under control of the CK19 promoter. The final construct was confirmed by digestion and sequencing analysis. DU145 cells were transfected with pCK19-GFP construct using Lipofectamine Plus 2000 (Invitrogen). After 24 hours, medium was replaced with fresh medium and stably expressing cells selected in the presence of G418 (Invitrogen). Positive clones were confirmed by direct microscopy and immunofluorescence and also by PCR amplification of GFP coding region using specific primers (Fw 5′-[…]-3′ (SEQ ID NO: 3) and Rv 5′-[…]-3′ (SEQ ID NO: 4)).
Flow cytometry analysis of subpopulations of prostate cancer cells were carried out following standard procedures. Intracellular CK19 and CK18 expression was performed in single-cell suspensions fixed with 70% ethanol, whereas the expression of cell surface HLA class I and GFP was determined in fresh cell samples (without fixation). […] A minimum of 10^4 cells were measured per sample.

22RV1-DR cells = assay: Cell viability assay (MTS), Docetaxel resistant 22RV1-DR; assay type: cell-based, human; conditions: for IC50: Homo sapiens
Procedure: as §2, with “Docetaxel. After the sensitive clones were no longer present and the surviving DU-145 and 22RV1 cells repopulated the flask, the concentration of Docetaxel was increased to 10 nM and subsequently to 25 nM, 50 nM, 100 nM and 250 nM. 22RV1-DR cells were further exposed to 500 nM Docetaxel. After exposure to each increasing dose of Docetaxel, the remaining surviving cells were maintained in culture medium containing the last selection escalating dose of Docetaxel. The last drug selection concentration at which the cells were exposed was 250 nM for DU-145-DR and 500 nM for 22RV1-DR, in order to avoid reversibility of the acquired Docetaxel resistance phenotype. The process of acquired drug resistance took 9 months for DU-145-DR and 6.5 months for 22RV1-DR.” for “Docetaxel.”
as §3

[5] = tested on: 22RV1 and DU145 parental (sensitive) cells; assay: Colony formation assay, Docetaxel sensitive parental cells; assay type: cell-based, human; conditions: continuous Docetaxel for 21 days (25 nM in 22RV1, 5 nM in DU145)
Procedure: as §1

DU145-DR cells = assay: Cell viability assay (MTS), Docetaxel resistant DU145-DR; assay type: cell-based, human; conditions: for IC50: Homo sapiens
Procedure: as §2, with “Docetaxel. After the sensitive clones were no longer present and the surviving DU-145 and 22RV1 cells repopulated the flask, the concentration of Docetaxel was increased to 10 nM and subsequently to 25 nM, 50 nM, 100 nM and 250 nM. 22RV1-DR cells were further exposed to 500 nM Docetaxel. After exposure to each increasing dose of Docetaxel, the remaining surviving cells were maintained in culture medium containing the last selection escalating dose of Docetaxel. The last drug selection concentration at which the cells were exposed was 250 nM for DU-145-DR and 500 nM for 22RV1-DR, in order to avoid reversibility of the acquired Docetaxel resistance phenotype. The process of acquired drug resistance took 9 months for DU-145-DR and 6.5 months for 22RV1-DR.” for “Docetaxel.”
as §3

SMILES: N.N.[Cl][Pt][Cl] [Cisplatin]
cross-resistance of Docetaxel resistant cells [1]: cross-resistance

fold increase of Docetaxel IC50 (22RV1-DR cells; 22RV1-DR versus 22RV1): 400 fold
IC50 (22RV1-DR cells; 22RV1-DR acquired resistant cells, 72 hours): 10000 nM
IC50 (22RV1-DR cells; 22RV1-DR after 12 weeks of drug withdrawal): 50 nM
fold increase of Docetaxel IC50 (DU145-DR cells; DU145-DR versus DU145): 200 fold
IC50 (DU145-DR cells; DU145-DR acquired resistant cells, 72 hours): 1000 nM
IC50 (DU145-DR cells; DU145-DR after 12 weeks of drug withdrawal): 25 nM
SMILES: CC(=O)O[C@@]12CO[C@@H]1C[C@H](O)[C@@]1(C)C(=O)[C@H](O)C3=C(C)[C@@H](OC(=O)[C@H](O)[C@@H](NC(=O)OC(C)(C)C)c4ccccc4)C[C@@](O)([C@@H](OC(=O)c4ccccc4)[C@H]21)C3(C)C [Docetaxel]
clone formation under continuous exposure [2]: only tumour cells with a GFP-negative/HLA class I-negative phenotype were able to form clones
colony formation [3]: colonies were observed
IC50 (DU145 cells): 5 nM
IC50 (22RV1 cells): 25 nM
GFP-negative phenotype, % of the total population after treatment ([4]; initially 6.4±4.3%): 73.1±10.2%
GFP-positive phenotype, % of the total cell population after treatment ([4]; initially 87.5±10.4%): 28.3±10.6%
colony formation [5]: No colonies were observed

SMILES: COc1cccc2c1C(=O)c1c(O)c3c(c(O)c1C2=O)C[C@@](O)(C(=O)CO)C[C@@H]3O[C@H]1C[C@H](N)[C@H](O)[C@H](C)O1 [Doxorubicin]
cross-resistance of Docetaxel resistant cells [1]: cross-resistance

SMILES: O=C1c2c(O)ccc(O)c2C(=O)c2c(NCCNCCO)ccc(NCCNCCO)c21 [Mitoxantrone]
cross-resistance of Docetaxel resistant cells [1]: cross-resistance

SMILES: CC(=O)O[C@H]1C(=O)[C@@]2(C)[C@H]([C@H](OC(=O)c3ccccc3)[C@]3(O)C[C@H](OC(=O)[C@H](O)[C@@H](NC(=O)c4ccccc4)c4ccccc4)C(C)=C1C3(C)C)[C@]1(OC(C)=O)CO[C@@H]1C[C@@H]2O [Paclitaxel]
cross-resistance of Docetaxel resistant cells [1]: cross-resistance

SMILES: CCC1=C[C@@H]2CN(C1)Cc1c([nH]c3ccccc13)[C@@](C(=O)OC)(c1cc3c(cc1OC)N(C)[C@H]1[C@@](O)(C(=O)OC)[C@H](OC(C)=O)[C@]4(CC)C=CCN5CC[C@]31[C@@H]54)C2 [Vinorelbine]
cross-resistance of Docetaxel resistant cells [1]: cross-resistance
